Measured values: US4843087A (priority 1986, dated 1989)
In brackets after ≈: the same amount, converted by molar mass.

Legend:
[1] = system: Polio 2; assay: microbe, parasite or virus in culture; assay type: cell-based, poliovirus; conditions: Enterovirus C, HeLa, read-out: Polio 2 MIC
[2] = system: human rhinovirus (HRV) serotypes; assay: microbe, parasite or virus in culture; assay type: cell-based; conditions: for MIC50: read-out: Rhinovirus MIC50; for IC (MIC80 of serotype panel): read-out: Rhinovirus MIC80

Compound Cc1cc(CCCCCOc2c(F)c(F)c(C3=NCCO3)c(F)c2F)on1 [161(c), 5-{5-[4-(4,5-Dihydro-2-oxazolyl)-2,3,5,6-tetrafluorophenoxy]pentyl}-3-methylisoxazole] has an MIC [1] of 0.05 µg/mL (≈ 0.129 µM), an MIC50 [2] of 0.25 µg/mL (≈ 0.647 µM) and an IC (MIC80 of serotype panel) [2] of 3.5 µg/mL.

Compound Cc1cc(CCCCCOc2ccc(C3=NCCO3)cc2N(C)C)on1 [Example 100, 5-{5-[4-(4,5-Dihydro-2-oxazolyl)-2-(dimethylamino)phenoxy]pentyl}-3-methylisoxazole] has an MIC [1] of 6.2 µg/mL (≈ 17.3 µM), an MIC50 [2] of 0.76 µg/mL (≈ 2.13 µM) and an IC (MIC80 of serotype panel) [2] of 99 µg/mL.

Cc1cc(CCCCCCc2c(Cl)cc(C3=NCCO3)cc2Cl)on1 [163(b), 5-{6-[2,6-Dichloro-4-(4,5-dihydro-2-oxazolyl)phenyl]hexyl}-3-methylisoxazole] showed an MIC [1] of 1.4 µg/mL (≈ 3.67 µM), an MIC50 [2] of 0.49 µg/mL (≈ 1.29 µM) and an IC (MIC80 of serotype panel) [2] of 0.73 µg/mL.

Cc1cc(CCCCCCc2ccc(C3=NCCO3)cc2)on1 [Example 142] gave an MIC [1] of 0.37 µg/mL (≈ 1.18 µM), an MIC50 [2] of 0.26 µg/mL (≈ 0.832 µM) and an IC (MIC80 of serotype panel) [2] of 6.2 µg/mL.

Cc1cc(CCCCCCCOc2ccc(C3=NCCO3)c(Cl)c2)on1 [Example 50, 5-{7-[3-Chloro-4(4,5-dihydro-2-oxazolyl)phenoxy]heptyl}-3-methylisoxazole] showed an MIC [1] of 0.7 µg/mL (≈ 1.86 µM), an MIC50 [2] of 5.05 µg/mL (≈ 13.4 µM) and an IC (MIC80 of serotype panel) [2] of 99 µg/mL.

Cc1cc(CCCCCOc2ccc(-c3nc(C)c(C)o3)cc2Cl)on1 [Example 134, 5-{5-[2-Chloro-4-(4,5-dimethyl-2-oxazolyl)phenoxy]pentyl}-3-methylisoxazole] was tested, and the MIC [1] was 1.9 µg/mL (≈ 5.07 µM), the MIC50 [2] was 0.29 µg/mL (≈ 0.774 µM) and the IC (MIC80 of serotype panel) [2] was 0.5 µg/mL.

In the case of Cc1cc(CCCCCOc2ccc(C3=NCCO3)cc2C(F)F)on1 [Example 84, 5-{5-[2-Difluoromethyl-4-(4,5-dihydro-2-oxazolyl)phenoxy]pentyl}-3-methylisoxazole], the MIC [1] is reported as 0.11 µg/mL (≈ 0.302 µM), the MIC50 [2] is reported as 0.082 µg/mL (≈ 0.225 µM) and the IC (MIC80 of serotype panel) [2] is reported as 0.72 µg/mL.

COc1cc(C(=O)NCCCl)cc(OC)c1OCCCCCc1cc(C)no1 [158(b), N-(2-Chloroethyl)-3,5-dimethoxy-4-{[5-(3-methyl-5-isoxazolyl)pentyl]oxy}benzamide] was tested, and the MIC [1] was 2 µg/mL (≈ 4.87 µM), the MIC50 [2] was 1.73 µg/mL (≈ 4.21 µM) and the IC (MIC80 of serotype panel) [2] was 4.7 µg/mL.

For Cc1cc(CCCCCOc2ccc(C3=NCCO3)cc2[N+](=O)[O-])on1 [Example 53, 5-{5-[4-(4,5-Dihydro-2-oxazolyl)-2-nitrophenoxy]pentyl}-3-methylisoxazole], the MIC [1] was 0.08 µg/mL (≈ 0.223 µM), the MIC50 [2] was 0.087 µg/mL (≈ 0.242 µM) and the IC (MIC80 of serotype panel) [2] was 0.64 µg/mL.

Cc1cc(CCCCCCCOc2ccc(C3=NCCO3)cc2F)on1 [19(b), 5-{7-[4-(4,5-Dihydro-2-oxazolyl)-2-fluorophenoxy]heptyl}-3-methylisoxazole] gave an MIC [1] of 0.3 µg/mL (≈ 0.832 µM), an MIC50 [2] of 0.8 µg/mL (≈ 2.22 µM) and an IC (MIC80 of serotype panel) [2] of 99 µg/mL.

Cc1cc(CCCCCOc2c(C)cc(C3=NCCO3)cc2Cl)on1 [154(c), 5-{5-[2-Chloro-4-(4,5-dihydro-2-oxazolyl)-6-methylphenoxy]pentyl}-3-methylisoxazole] was tested, and the MIC [1] was 0.8 µg/mL (≈ 2.2 µM), the MIC50 [2] was 0.22 µg/mL (≈ 0.606 µM) and the IC (MIC80 of serotype panel) [2] was 0.33 µg/mL.

Cc1cc(CCCCCOc2ccc(C3=NCCO3)c(C)c2C)on1 [Example 79, 5-{5-[4-(4,5-Dihydro-2-oxazolyl)-2,3-dimethylphenoxy]pentyl}-3-methylisoxazole] gave an MIC [1] of 2.3 µg/mL (≈ 6.72 µM), an MIC50 [2] of 0.3 µg/mL (≈ 0.876 µM) and an IC (MIC80 of serotype panel) [2] of 0.7 µg/mL.

For Cc1cc(CCCCCOc2c(Cl)cc(C(=O)NCCCl)cc2Br)on1 [152(c), 3-Bromo-5-chloro-N-(2-chloroethyl)-4-{[5-(3-methyl-5-isoxazolyl)pentyl]oxy}benzamide], the MIC [1] was 2.1 µg/mL (≈ 4.52 µM), the MIC50 [2] was 0.14 µg/mL (≈ 0.302 µM) and the IC (MIC80 of serotype panel) [2] was 0.6 µg/mL.

Work on Cc1cc(CCCCCOc2ccc(C3=NCCO3)cc2C=CBr)on1 [Example 147, 5-{5-[2-(2-Bromoethenyl)-4-(4,5-dihydro-2-oxazolyl)phenoxy]pentyl}-3-methylisoxazole] yielded an MIC [1] of 0.4 µg/mL (≈ 0.954 µM), an MIC50 [2] of 0.23 µg/mL (≈ 0.549 µM) and an IC (MIC80 of serotype panel) [2] of 0.76 µg/mL.

In the case of CCN(CC)Cc1cc(CCCCCCCOc2ccc(C3=NCCO3)cc2)on1 [Example 137, 5-{7-[4-(4,5-Dihydro-2-oxazolyl)phenoxy]heptyl}-3-(diethylaminomethyl)isoxazole], the MIC [1] is reported as 2 µg/mL (≈ 4.84 µM), the MIC50 [2] is reported as 3.25 µg/mL (≈ 7.87 µM) and the IC (MIC80 of serotype panel) [2] is reported as 6.2 µg/mL.

Work on Cc1cc(CCCOCOCCOc2ccc(C3=NCCO3)cc2C)on1 [Example 83, 5-{3-[[2-[4-(4,5-Dihydro-2-oxazolyl)-2-methylphenoxy]ethoxy]methoxy]propyl}-3-methylisoxazole] yielded an MIC [1] of 5 µg/mL (≈ 13.4 µM), an MIC50 [2] of 3.75 µg/mL (≈ 10 µM) and an IC (MIC80 of serotype panel) [2] of 99 µg/mL.

Cc1cc(CCCCCOc2c(Cl)cc(C(=O)NCCCl)cc2Cl)on1 [162(c), 3,5-Dichloro-N-(2-chloroethyl)-4-{[5-(3-methyl-5-isoxazolyl)pentyl]oxy}benzamide] was tested, and the MIC [1] was 0.48 µg/mL (≈ 1.14 µM), the MIC50 [2] was 0.16 µg/mL (≈ 0.381 µM) and the IC (MIC80 of serotype panel) [2] was 0.28 µg/mL.

Compound Cc1cc(CCCCCCCOc2ccc(C3=NCCO3)c(O)c2)on1 [Example 59, 5-{7-[4-(4,5-Dihydro-2-oxazolyl)-3-hydroxyphenoxy]heptyl}-3-methylisoxazole] has an MIC [1] of 0.04 µg/mL (≈ 0.112 µM), an MIC50 [2] of 0.435 µg/mL (≈ 1.21 µM) and an IC (MIC80 of serotype panel) [2] of 25.2 µg/mL.

Cc1cc(CCCCCOc2ccc(C3=NCCO3)cc2N)on1 [Example 49, 5-{5-[2-Amino-4-(4,5-dihydro-2-oxazoyl)phenoxy]pentyl}-3-methylisoxazole] gave an MIC [1] of 2 µg/mL (≈ 6.07 µM), an MIC50 [2] of 1.1 µg/mL (≈ 3.34 µM) and an IC (MIC80 of serotype panel) [2] of 4.6 µg/mL.

With Cc1cc(CCCCOc2ccc(C3=NC(C)CO3)cc2)on1 (stereo not drawn) [Example 64, 5-{4-[4-(4,5-Dihydro-4-methyl-2-oxazoly)phenoxy]butyl}-3-methylisoxazole] the MIC [1] was 2.4 µg/mL (≈ 7.63 µM), the MIC50 [2] was 0.485 µg/mL (≈ 1.54 µM) and the IC (MIC80 of serotype panel) [2] was 25.6 µg/mL.

With Cc1cc(CCCCCOc2ccc(C3=NC(C)CO3)cc2Cl)on1 (stereo not drawn) [Example 32, 5-{5-[2-Chloro-4-(4,5-dihydro-4-methyl-2-oxazolyl)phenoxy]pentyl}-3-methylisoxazole] the MIC [1] was 1.3 µg/mL (≈ 3.58 µM), the MIC50 [2] was 0.09 µg/mL (≈ 0.248 µM) and the IC (MIC80 of serotype panel) [2] was 0.27 µg/mL.

COc1cc(C2=NCCO2)ccc1OCCCCCCCc1cc(C)no1 [41(b), 5-{7-[4-(4,5-Dihydro-2-oxazolyl)-2-methoxyphenoxy]heptyl}-3-methylisoxazole] showed an MIC [1] of 1 µg/mL (≈ 2.68 µM), an MIC50 [2] of 0.55 µg/mL (≈ 1.48 µM) and an IC (MIC80 of serotype panel) [2] of 4 µg/mL.

Compound Cc1cc(CCCCCOc2c(Cl)cc(-c3cnco3)cc2Cl)on1 [Example 98, 5-{5-[2,6-Dichloro-4-(5-oxazolyl)phenoxy]pentyl}-3-methylisoxazole] has an MIC [1] of 12.5 µg/mL (≈ 32.8 µM), an MIC50 [2] of 0.21 µg/mL (≈ 0.551 µM) and an IC (MIC80 of serotype panel) [2] of 2.8 µg/mL.

For Cc1cc(CCCCCOc2ccc(C3=NCCO3)cc2C(F)(F)F)on1 [Example 54, 5-{5-[4-(4,5-Dihydro-2-oxazolyl)-2-trifluoromethylphenoxy]pentyl}-3-methylisoxazole], the MIC [1] was 1.3 µg/mL (≈ 3.4 µM), the MIC50 [2] was 0.08 µg/mL (≈ 0.209 µM) and the IC (MIC80 of serotype panel) [2] was 0.42 µg/mL.

Cc1cc(CCCCCOc2c(Cl)cc(C(=O)NCCCl)cc2[N+](=O)[O-])on1 [153(c), 3-Chloro-N-(2-chloroethyl)-4-{[5-(3-methyl-5-isoxazolyl)pentyl]oxy}-5-nitrobenzamide] gave an MIC [1] of 0.86 µg/mL (≈ 2 µM), an MIC50 [2] of 0.08 µg/mL (≈ 0.186 µM) and an IC (MIC80 of serotype panel) [2] of 0.23 µg/mL.

With CCOC(=O)c1cc(C2=NCCO2)ccc1OCCCCCc1cc(C)no1 [Example 146, 5-{5-[2-Ethoxycarbonyl-4-(4,5-dihydro-2-oxazolyl)phenoxy]pentyl}-3-methylisoxazole] the MIC [1] was 4.2 µg/mL (≈ 10.9 µM), the MIC50 [2] was 0.29 µg/mL (≈ 0.75 µM) and the IC (MIC80 of serotype panel) [2] was 0.55 µg/mL.
